Measurements from patent US11384078B2, “5,6-fused-bicyclic compounds and compositions for the treatment of parasitic diseases” (NOVARTIS AG, priority 2017, dated 2022).
Where two headings read alike, the source gives them in different places.

Key:
Format in all cases: cell-based
[1] = tested on: Trypanosoma brucei brucei (Lister 427) strain; assay: Assay for growth inhibition against Trypanosoma brucei brucei (Cell TiterGlo ATP luminescence); conditions: Trypanosoma brucei, read-out: T. Brucei (HAT) EC50
Protocol: Assay for Growth Inhibition Against Trypanosoma brucei brucei
The proliferation is quantified by the addition of Cell TiterGlo® (Promega®) a luminescent cell viability assay that measures the number of viable cells in culture based on the quantification of cellular ATP amount, which is an indicator of metabolically active cells.
Trypanosoma brucei brucei (Lister 427) strain was grown in Hirumi 9 (HMI-9) media supplemented with 10% v/v fetal bovine serum (FBS) and 10% v/v serum plus. For measurement of cell proliferation inhibition, test compounds were three fold serially diluted in duplicates to 384-well white plates, resulting in 10 dilutions for each compound. A volume of 40 μL of T. b. brucei culture (10,000 parasites/mL) was added to each well, and the assay plates were incubated at 37° C. for 2 days in a CO2 incubator. Growth inhibition was monitored by measuring ATP levels, which, is used as a surrogate marker for growth. Relative luminescence units were measured using TECAN® M1000 after 30 min of adding 40 μl of Cell TiterGlo®. IC50 values were determined by analyzing the data using HELIOS software. IC50 is defined as the lowest concentration of the compound that inhibited 50% growth of the T. b. brucei wild type strain compared to untreated controls.

[2] = tested on: Trypanosoma cruzi amastigotes cultured in 3T3 fibroblast cells; assay: Assay for growth inhibition of kinetoplastid parasite Trypanosoma cruzi (beta-galactosidase Tulahuen strain, CPRG readout); conditions: Trypanosoma cruzi, Fibroblast, read-out: Buckner infectious T. cruzi EC50
From the text: Assay for Growth Inhibition of Kinetoplastid Parasite Trypanosoma cruzi
Compounds of the invention can be assayed for inhibitor activity against Trypanosoma cruzi amastigotes cultured in 3T3 fibroblast cells. The assay is done using the mammalian stage (amastigotes) of T. cruzi that replicates in the intracellular space of host cells. The host cells are initially infected with the culture-derived trypomastigotes that rapidly invade and then divide as amastigotes. The protocol uses the Tulahuen strain of T. cruzi that has been engineered to express the E. coli beta-galactosidase gene (Lac-Z) (Antimicr. Agents Chemoth. 40:2592, 1996). This allows for a colorimetric readout by using the substrate CPRG and an absorbance plate reader.
3T3 fibroblast cells are re-suspended in RPMI-1640 medium without phenol red medium supplemented with 10% FBS (heat inactivated), 100 μg/ml penicillin, and 100 μg/ml streptomycin. Forty μL of suspension (1,000 cells) is dispensed into 384-well plates and incubated overnight at 37° C. temperature and in atmosphere containing 5% CO2. The following day, 100 nL of compounds of the invention in DMSO are added to plate wells containing 3T3 cells. At the same time control compounds (benznidazole and nifurtimox) and DMSO are added to plates to serve as the positive and negative controls, respectively. After that, 10 μL of media containing 10,000 T. cruzi trypomastigotes are added to each plate well and plates are placed back into incubators. After 6 day incubation, 10 μL of reagent solution (0.6 mM CPRG, 0.6% NP-40 in PBS) is added to plates and incubated at room temperature for 2 hours. Absorbance is then measured on SpectraMax GEMINI fluorimeter to determine relative number of T. cruzi cells present in each plate well.

[3] = tested on: Leishmania donovani axenic amastigote; assay: In vitro assay for growth inhibition of Leishmania donovani axenic amastigote (Cell TiterGlo luminescence); conditions: Leishmania donovani, read-out: L. donovani amastigotes EC50
Protocol: Abbreviations as used herein below have the corresponding meaning: • CPRG Chlorophenol Red-P-D-galactopyranoside • ATP adenosine triphosphate • BSA bovine serum albumin • DMSO dimethyl sulfoxide • FBS fetal bovine serum • PBS phosphate buffered saline • RPMI 1640 Rosweli Park Memorial Institute (RPMI) 1640 medium In Vitro Assay for Growth Inhibition of Leishmania donovani Axenic Amastiqote
Leishmania donovani axenic amastigote parasites are grown at 37° C., 5% CO2 in media made of RPMI 1640, 4 mM L-glutamine, 20% heat inactivated FBS, 100 units/ml of penicillin and 100 μg/ml of streptomycin, 23 μM folic acid, 100 μM adenosine, 22 mM D-glucose, 25 mM MES. The pH of media is adjusted to 5.5 at 37° C. using HCl. 20 μL of media is first dispensed into 384 well plates and 100 nL of the compounds of invention in DMSO are added to the plate wells. At the same time control compounds and DMSO are added to plates to serve as the positive and negative controls, respectively. 40 μL of parasite culture (9600 parasites) are then added to the plate wells. The plates are then placed into incubators. After two days incubation, 20 μL of Cell TiterGlo® (Promega) is added to the plate wells. The luminescence signal of each well is measured using the Envision reader (Perkin Elmer).

[4] = T. cruzi amastigotes in 3T3 fibroblast cells
[5] = L. donovani axenic amastigotes in vitro

Cc1nc(C)c(C(=O)Nc2ccc(F)c(-n3cc4cc(-c5ncccc5C)cnc4n3)c2)o1 [Compound 1, N-(4-fluoro-3-(5-(3-methylpyridin-2-yl)-2H-pyrazolo[3,4-b]pyridin-2-yl)phenyl)-2,4-dimethyloxazole-5-carboxamide]
EC50 [1]: < 23 nM | EC50 [2]: 5.2 nM | EC50 [3]: 7.1 nM

Cc1cccnc1-c1cnc2nn(-c3cc(NC(=O)N4CC[C@@H](F)C4)ccc3F)cc2c1 [Compound 4, (R)-3-fluoro-N-(4-fluoro-3-(5-(3-methylpyridin-2-yl)-2H-pyrazolo[3,4-b]pyridin-2-yl)phenyl)pyrrolidine-1-carboxamide]
EC50 ([1]; T. brucei brucei (Lister 427)): < 23 nM | EC50 [2, 4]: 1 nM | EC50 [3, 5]: 1.3 nM

Cc1cccnc1-c1cnc2nn(-c3cc(NC(=O)N4CC(F)(F)C4)ccc3F)cc2c1 [Compound 5, 3,3-difluoro-N-(4-fluoro-3-(5-(3-methylpyridin-2-yl)-2H-pyrazolo[3,4-b]pyridin-2-yl)phenyl)azetidine-1-carboxamide]
EC50 ([1]; T. brucei brucei (Lister 427)): < 23 nM | EC50 [2, 4]: 5.3 nM | EC50 [3, 5]: 3.6 nM

Cc1cccnc1-c1cnc2nn(-c3cc(NC(=O)N4CC(F)C4)ccc3F)cc2c1 [Compound 6, 3-fluoro-N-(4-fluoro-3-(5-(3-methylpyridin-2-yl)-2H-pyrazolo[3,4-b]pyridin-2-yl)phenyl)azetidine-1-carboxamide]
EC50 ([1]; T. brucei brucei (Lister 427)): < 23 nM | EC50 [2, 4]: 9.9 nM | EC50 [3, 5]: 12 nM

O=C(Nc1ccc(F)c(-n2cc3cc(-c4ccccn4)cnc3n2)c1)c1ccc(F)o1 [Compound 11, 5-fluoro-N-(4-fluoro-3-(5-(pyridin-2-yl)-2H-pyrazolo[3,4-b]pyridin-2-yl)phenyl)furan-2-carboxamide]
EC50 ([1]; T. brucei brucei (Lister 427)): > 50000 nM | EC50 [2, 4]: 1 nM | EC50 [3, 5]: 2.8 nM

O=C(Nc1ccc(F)c(-n2cc3cc(CC4CCC4)cnc3n2)c1)N1CC(F)C1 [Compound 26, N-{3-[5-(cyclobutylmethyl)-2H-pyrazolo[3,4-b]pyridin-2-yl]-4-fluorophenyl}-3-fluoroazetidine-1-carboxamide]
EC50 ([1]; T. brucei brucei (Lister 427)): < 23 nM | EC50 [2, 4]: 12 nM | EC50 [3, 5]: 9.6 nM

O=C(Nc1ccc(F)c(-n2cc3cc(C4CCC4)cnc3n2)c1)N1CC(F)(F)C1 [Compound 31, N-(3-{5-cyclobutyl-2H-pyrazolo[3,4-b]pyridin-2-yl}-4-fluorophenyl)-3,3-difluoroazetidine-1-carboxamide]
EC50 ([1]; T. brucei brucei (Lister 427)): < 23 nM | EC50 [2, 4]: 8.3 nM | EC50 [3, 5]: 6.2 nM

O=C(Nc1ccc(F)c(-n2cc3cc(CC4CCC4)cnc3n2)c1)N1CC(F)(F)C1 [Compound 37, N-{3-[5-(cyclobutylmethyl)-2H-pyrazolo[3,4-b]pyridin-2-yl]-4-fluorophenyl}-3,3-difluoroazetidine-1-carboxamide]
EC50 ([1]; T. brucei brucei (Lister 427)): < 23 nM | EC50 [2, 4]: 26 nM | EC50 [3, 5]: 23 nM

O=C(Nc1ccc(F)c(-n2cc3cc(C4CCC4)cnc3n2)c1)N1CC[C@@H](F)C1 [Compound 45, (3R)-N-(3-{5-cyclobutyl-2H-pyrazolo[3,4-b]pyridin-2-yl}-4-fluorophenyl)-3-fluoropyrrolidine-1-carboxamide]
EC50 ([1]; T. brucei brucei (Lister 427)): < 23 nM | EC50 [2, 4]: 28 nM | EC50 [3, 5]: 40 nM

O=C(Nc1ccc(F)c(-n2cc3cc(CC4CCC4)cnc3n2)c1)N1CC[C@@H](F)C1 [Compound 51, (3R)-N-{3-[5-(cyclobutylmethyl)-2H-pyrazolo[3,4-b]pyridin-2-yl]-4-fluorophenyl}-3-fluoropyrrolidine-1-carboxamide]
EC50 ([1]; T. brucei brucei (Lister 427)): < 23 nM | EC50 [2, 4]: 19 nM | EC50 [3, 5]: 15 nM

O=C(Nc1ccc(F)c(-n2cc3cc(CC4CCC4)cnc3n2)c1)c1ccco1 [Compound 62, N-{3-[5-(cyclobutylmethyl)-2H-pyrazolo[3,4-b]pyridin-2-yl]-4-fluorophenyl}furan-2-carboxamide]
EC50 ([1]; T. brucei brucei (Lister 427)): < 23 nM | EC50 [2, 4]: 5.1 nM | EC50 [3, 5]: 39 nM

CC(C)c1cnc2nn(-c3cc(NC(=O)C4(C)CCCO4)ccc3F)cc2c1 (stereo not drawn) [Compound 77, N-{4-fluoro-3-[5-(propan-2-yl)-2H-pyrazolo[3,4-b]pyridin-2-yl]phenyl}-2-methyloxolane-2-carboxamide]
EC50 ([1]; T. brucei brucei (Lister 427)): 8500 nM | EC50 [2, 4]: 6500 nM | EC50 [3, 5]: 17000 nM

CC(C)c1cnc2nn(-c3cc(NC(=O)N4CCC4)ccc3F)cc2c1 [Compound 100, N-{4-fluoro-3-[5-(propan-2-yl)-2H-pyrazolo[3,4-b]pyridin-2-yl]phenyl}azetidine-1-carboxamide]
EC50 ([1]; T. brucei brucei (Lister 427)): < 23 nM | EC50 [2, 4]: 4.2 nM | EC50 [3, 5]: 9.2 nM

CC(C)c1cnc2nn(-c3cc(NC(=O)c4ccc(CN(C)C)o4)ccc3F)cc2c1 [Compound 111, 5-[(dimethylamino)methyl]-N-{4-fluoro-3-[5-(propan-2-yl)-2H-pyrazolo[3,4-b]pyridin-2-yl]phenyl}furan-2-carboxamide]
EC50 ([1]; T. brucei brucei (Lister 427)): 10000 nM | EC50 [2, 4]: 2900 nM | EC50 [3, 5]: 8700 nM

CC(C)c1cnc2nn(-c3cc(NC(=O)c4ccc(C#N)o4)ccc3F)cc2c1 [Compound 112, 5-cyano-N-{4-fluoro-3-[5-(propan-2-yl)-2H-pyrazolo[3,4-b]pyridin-2-yl]phenyl}furan-2-carboxamide]
EC50 ([1]; T. brucei brucei (Lister 427)): < 23 nM | EC50 [2, 4]: 2.8 nM | EC50 [3, 5]: 16 nM

Cc1cc(C(=O)Nc2ccc(F)c(-n3cc4cc(C(C)C)cnc4n3)c2)oc1C [Compound 114, N-{4-fluoro-3-[5-(propan-2-yl)-2H-pyrazolo[3,4-b]pyridin-2-yl]phenyl}-4,5-dimethylfuran-2-carboxamide]
EC50 ([1]; T. brucei brucei (Lister 427)): 54 nM | EC50 [2, 4]: 45 nM | EC50 [3, 5]: 310 nM

Cc1ccoc1C(=O)Nc1ccc(F)c(-n2cc3cc(C(C)C)cnc3n2)c1 [Compound 115, N-{4-fluoro-3-[5-(propan-2-yl)-2H-pyrazolo[3,4-b]pyridin-2-yl]phenyl}-3-methylfuran-2-carboxamide]
EC50 ([1]; T. brucei brucei (Lister 427)): < 23 nM | EC50 [2, 4]: 14 nM | EC50 [3, 5]: 150 nM

CC(C)c1cnc2nn(-c3cc(NC(=O)c4cc5ccccc5o4)ccc3F)cc2c1 [Compound 116, N-{4-fluoro-3-[5-(propan-2-yl)-2H-pyrazolo[3,4-b]pyridin-2-yl]phenyl}-1-benzofuran-2-carboxamide]
EC50 ([1]; T. brucei brucei (Lister 427)): 1500 nM | EC50 [2, 4]: 880 nM | EC50 [3, 5]: 3100 nM

CC(C)c1cnc2nn(-c3cc(NC(=O)C4(C)CC(F)(F)C4)ccc3F)cc2c1 [Compound 117, 3,3-difluoro-N-{4-fluoro-3-[5-(propan-2-yl)-2H-pyrazolo[3,4-b]pyridin-2-yl]phenyl}-1-methylcyclobutane-1-carboxamide]
EC50 ([1]; T. brucei brucei (Lister 427)): 13000 nM | EC50 [2, 4]: 5500 nM | EC50 [3, 5]: 9300 nM

CC(C)c1cnc2nn(-c3cc(NC(=O)C4CC(F)(F)C4)ccc3F)cc2c1 [Compound 118, 3,3-difluoro-N-{4-fluoro-3-[5-(propan-2-yl)-2H-pyrazolo[3,4-b]pyridin-2-yl]phenyl}cyclobutane-1-carboxamide]
EC50 ([1]; T. brucei brucei (Lister 427)): 1400 nM | EC50 [2, 4]: 1100 nM | EC50 [3, 5]: 690 nM
